{"source": "patent US20230172923A1", "about": "“METHODS OF TREATING CYTOKINE-RELATED ADVERSE EVENTS” (BRISTOL-MYERS SQUIBB COMPANY, priority 2020, published 2023)", "format_in_all_cases": "cell-based, human", "key": {"IL1-beta": {"system": "IL1-beta", "assay": "LPS-induced IL1-beta secretion from PBMCs, overnight pre-treatment (MSD)", "settings": "overnight 1000 nM lenalidomide, 100 nM pomalidomide, 10 nM iberdomide or 1 nM Compound 1; LPS 24 hours", "description": "(§1) Fresh PBMCs isolated from healthy volunteers were seeded at a concentration of 1×10^6 cells/ml and treated with the indicated concentration of IMiD drugs/CELMoD agents or DMSO overnight before stimulation with the indicated concentration of LPS. After 24 hours, the cell culture media was collected and IL-6, TNF-alpha and IL1-beta levels in the supernatant were assessed using an MSD assay. ULOQ = Upper limit of quantification.\n(§2) Fresh peripheral blood mononuclear cells (PBMCs) were isolated from the blood (buffy coat) of healthy human volunteers by Ficoll based cell separation. The isolated PBMCs were seeded at a concentration of 1×10^6 cells/ml and treated with 1000 nM lenalidomide, 100 nM pomalidomide, 10 nM iberdomide, 1 nM Compound 1 (CC-92480) or control DMSO, overnight (~17 hours). The next morning, the PBMCs were stimulated with various concentrations of LPS (Lipopolysaccharides from Escherichia coli O111:B4).\n(§3) After 24 hours, the cell culture media was collected from the control and stimulated cells, spun down at 300 g for 5 minutes to remove cells and the supernatant was subjected to cytokine analysis to quantify secreted levels of IL-6, TNF-alpha (TNF-α) and IL1-beta (IL-1β) using an MSD assay (see e.g. FIGS. 8A-C)."}, "IL-6 [1]": {"system": "IL-6", "assay": "LPS-induced IL-6 secretion from PBMCs, overnight pre-treatment (MSD)", "settings": "overnight 1000 nM lenalidomide, 100 nM pomalidomide, 10 nM iberdomide or 1 nM Compound 1; LPS 24 hours", "description": "as §1, §2, §3"}, "TNF-α": {"system": "TNF-α", "assay": "LPS-stimulated PBMC cytokine production, multiplex cytokine analysis: TNF-α", "settings": "Homo sapiens, PBMC, PBMC 2×10^6 cells/ml, compound 1 hour, then 1 ng/ml LPS 18 hours", "description": "Peripheral blood mononuclear cells (PBMCs) were isolated from the blood of healthy human donors by Ficoll cell separation. The PBMCs were seeded at a concentration of 2×10^6 cells/ml and treated for 1 hour at 37° C. with various concentrations of IMiD compounds or control DMSO (0.25%), before stimulation with 1 ng/ml LPS for 18 hours at 37° C.\nSupernatant samples were subjected to multiplex cytokine analysis (Luminex IS100 instrument) to quantify secreted levels of IL-6, IL-8, IL1-beta (IL-1β), GM-CSF, MDC, MIP-1alpha (MIP-1α), MIP-1beta (MIP-1β) and TNF-alpha (TNF-α) (see e.g. FIGS. 7A-C).\nIC50 (half maximal inhibitory concentration) values were calculated to measure the potency of each IMiD compound in inhibiting LPS-stimulated secretion of each cytokine (see Table 25)."}, "IL-1β": {"system": "IL-1β", "assay": "LPS-stimulated PBMC cytokine production, multiplex cytokine analysis: IL-1β", "settings": "Homo sapiens, PBMC, PBMC 2×10^6 cells/ml, compound 1 hour, then 1 ng/ml LPS 18 hours", "description": "(§4) Peripheral blood mononuclear cells (PBMCs) were isolated from the blood of healthy human donors by Ficoll cell separation. […] Supernatant samples were subjected to multiplex cytokine analysis (Luminex IS100 instrument) to quantify secreted levels of IL-6, IL-8, IL1-beta (IL-1β), GM-CSF, MDC, MIP-1alpha (MIP-1α), MIP-1beta (MIP-1β) and TNF-alpha (TNF-α) (see e.g. FIGS. 7A-C). IC50 (half maximal inhibitory concentration) values were calculated to measure the potency of each IMiD compound in inhibiting LPS-stimulated secretion of each cytokine (see Table 25)."}, "MIP-1β": {"system": "MIP-1β", "assay": "LPS-stimulated PBMC cytokine production, multiplex cytokine analysis: MIP-1β", "settings": "Homo sapiens; PBMC 2×10^6 cells/ml, compound 1 hour, then 1 ng/ml LPS 18 hours", "description": "as §4"}, "IL-6 [2]": {"system": "IL-6", "assay": "LPS-stimulated PBMC cytokine production, multiplex cytokine analysis: IL-6", "settings": "Homo sapiens, PBMC, PBMC 2×10^6 cells/ml, compound 1 hour, then 1 ng/ml LPS 18 hours", "description": "as §4"}, "MDC": {"system": "MDC", "assay": "LPS-stimulated PBMC cytokine production, multiplex cytokine analysis: MDC", "settings": "Homo sapiens, PBMC, PBMC 2×10^6 cells/ml, compound 1 hour, then 1 ng/ml LPS 18 hours", "description": "as §4"}, "OPM-2 cells": {"system": "OPM-2 cells", "assay": "CC-93269 mediated cytotoxicity assay with chronically stimulated T-cells, OPM-2 target cells (IncuCyte)", "settings": "anti-CD3/CD28 7 days with 100 nM pomalidomide, 10 nM iberdomide or 1 nM CC-92480; CC-93269 47 pM; E:T 1:2", "description": "Cell growth kinetics of A) NCI-H929 and B) OPM-2 cells in CC-93269 (47 pM) cytotoxicity assays on the IncuCyte® S3 Live-Cell Analysis System. Healthy donor T-cells were used as effector cells with or without chronic stimulation with anti-CD3/CD28 (7 days) in the presence of DMSO or CM agents (100 nM Pomalidomide, 10 nM CC-220 or 1 nM CC-92480). T-cells and NCI-H929 cells were co-cultured at E:T ratios of 1:4 (NCI-H929) or 1:2 (OPM-2). […] In contrast, prior exposure to CM agents prevented functional TBMS cell exhaustion and CC-93269 activity was similar or better to those observed with freshly thawed T-cells. Values shown represent the mean ± standard deviation of AUC values of 2-3 replicates from the same experiment.\nTo evaluate the effects of Cereblon modulating (CM) agents on T-cell function after chronic stimulation (i.e. mimicking T cell exhaustion), CD3+ enriched healthy donor T-cells were stimulated with anti-CD3/CD28 in the presence of DMSO (control), 100 nM pomalidomide, 10 nM iberdomide (CC-220) or 1 nM Compound 1 (CC-92480) for 7 days. Prolonged and repetitive anti-CD3/CD28 stimulation of T-cells results in functional T-cell exhaustion in vitro.\nThe chronically stimulated T-cells were then used in CC-93269 mediated cytotoxicity assays with NCI-H929 or OPM-2 multiple myeloma (MM) target cells. The T-cells were washed to remove compounds, and mixed with fluorescently labelled MM cell lines (NCI-H929, OPM-2) at optimized effector-to-target (E:T) ratios (1:2 or 1:4) in the presence of fixed concentrations of CC-93269 (47 pM). Freshly thawed T-cells (i.e. non-exhausted T-cells) from the same donor were used as control effector cells. In this experimental cytotoxicity assay setup, the number of target cells was continuously monitored using the IncuCyte® S3 Live-Cell Analysis System for a minimum of 10 days. Cell culture supernatants were taken from wells from subsequent CC-93269 mediated cytotoxicity assays at 3 days after mixing with MM target cells. CD3+ T cells from 2 or 3 independent healthy donors were tested for each MM cell line."}}}
{"smiles": "Nc1cccc2c1CN(C1CCC(=O)NC1=O)C2=O", "note": "(centres unmarked) [Lenalidomide, 3-(4-amino-1-oxo-2,3-dihydro-1H-isoindol-2-yl) piperidine-2,6-dione]", "values": [{"measurement": "LPS-induced secretion of IL-1β from PBMCs", "setting": "IL1-beta", "result": "reduces"}, {"measurement": "LPS-induced secretion of IL-6 from PBMCs", "setting": "IL-6 [1]", "result": "reduces"}, {"measurement": "IC50", "setting": "TNF-α", "result": 0.22, "unit": "µM"}, {"measurement": "IC50", "setting": "IL-1β", "result": 0.39, "unit": "µM"}, {"measurement": "IC50", "setting": "MIP-1β", "result": "> 10", "unit": "µM"}, {"measurement": "IC50", "setting": "IL-6 [2]", "result": 1.2, "unit": "µM"}, {"measurement": "IC50", "setting": "MDC", "result": 0.19, "unit": "µM"}]}
{"smiles": "O=C1CC[C@H](N2Cc3c(OCc4ccc(CN5CCOCC5)cc4)cccc3C2=O)C(=O)N1", "note": "[Iberdomide, (S)-3-(4-((4-(morpholinomethyl)benzyl)oxy)-1-oxoisoindolin-2-yl)piperidine-2,6-dione]", "values": [{"measurement": "LPS-induced secretion of IL-1β from PBMCs", "setting": "IL1-beta", "result": "reduces"}, {"measurement": "LPS-induced secretion of IL-6 from PBMCs", "setting": "IL-6 [1]", "result": "reduces"}, {"measurement": "IC50", "setting": "TNF-α", "result": 0.00059, "unit": "µM"}, {"measurement": "IC50", "setting": "IL-1β", "result": 0.00046, "unit": "µM"}, {"measurement": "IC50", "setting": "MIP-1β", "result": "> 10", "unit": "µM"}, {"measurement": "cytolytic function of chronically stimulated T-cells in CC-93269-directed killing of OPM-2 cells", "setting": "OPM-2 cells", "result": "beneficial effects on the cytolytic function of T-cells"}, {"measurement": "IC50", "setting": "IL-6 [2]", "result": 0.0038, "unit": "µM"}, {"measurement": "IC50", "setting": "MDC", "result": 0.0021, "unit": "µM"}]}
{"smiles": "N#Cc1ccc(N2CCN(Cc3ccc(COc4cccc5c4CN(C4CCC(=O)NC4=O)C5=O)cc3)CC2)c(F)c1", "note": "(stereo not drawn) [Compound 1, 4-(4-(4-(((2-(2,6-dioxopiperidin-3-yl)-1-oxoisoindolin-4-yl)oxy)methyl)benzyl)piperazin-l-yl)-3-fluorobenzonitrile]", "values": [{"measurement": "LPS-induced secretion of IL-1β from PBMCs", "setting": "IL1-beta", "result": "reduces"}, {"measurement": "LPS-induced secretion of IL-6 from PBMCs", "setting": "IL-6 [1]", "result": "reduces"}, {"measurement": "cytolytic function of chronically stimulated T-cells in CC-93269-directed killing of OPM-2 cells", "setting": "OPM-2 cells", "result": "beneficial effects on the cytolytic function of T-cells"}]}
{"smiles": "Nc1cccc2c1C(=O)N(C1CCC(=O)NC1=O)C2=O", "note": "(centres unmarked) [Pomalidomide, 4-amino-2-(2,6-dioxopiperidine-3-yl)isoindoline-1,3-dione]", "values": [{"measurement": "LPS-induced secretion of IL-1β from PBMCs", "setting": "IL1-beta", "result": "reduces"}, {"measurement": "LPS-induced secretion of IL-6 from PBMCs", "setting": "IL-6 [1]", "result": "reduces"}, {"measurement": "IC50", "setting": "TNF-α", "result": 0.033, "unit": "µM"}, {"measurement": "IC50", "setting": "IL-1β", "result": 0.047, "unit": "µM"}, {"measurement": "IC50", "setting": "MIP-1β", "result": "> 10", "unit": "µM"}, {"measurement": "cytolytic function of chronically stimulated T-cells in CC-93269-directed killing of OPM-2 cells", "setting": "OPM-2 cells", "result": "beneficial effects on the cytolytic function of T-cells"}, {"measurement": "IC50", "setting": "IL-6 [2]", "result": 0.059, "unit": "µM"}, {"measurement": "IC50", "setting": "MDC", "result": 0.031, "unit": "µM"}]}
